IC50 data for 22 compounds are collected here from ChEMBL document CHEMBL4014301, “Design, synthesis and evaluation of 4-substituted anthra[2,1-c][1,2,5]thiadiazole-6,11-dione derivatives as novel non-camptothecin topoisomerase I inhibitors” (Bioorg Med Chem Lett, 2017).

Format in all cases: functional, cell-based
The subject of assay [1] is HCT-116. Briefly: Antiproliferative activity against human HCT116 cells after 72 hrs by MTT assay. Particulars: Homo sapiens, HCT-116, 72 h. For orientation: Tetrazolium assays rely on reduction of a dye to a coloured formazan, in cell work by metabolically active cells.
The test system of assay [2] is A549. In words: Antiproliferative activity against human A549 cells after 72 hrs by MTT assay. Particulars: Homo sapiens, A549, 72 h.
The subject of assay [3] is ZR-75-30. Briefly: Antiproliferative activity against human ZR-7530 cells after 72 hrs by MTT assay. Particulars: Homo sapiens, ZR-75-30, 72 h.

The structures appear in SMILES notation. Some results are limits rather than exact numbers.

Usually IC50 stands for the concentration at which inhibition is half-maximal. Lower therefore signals inhibition by little substance. As for `O=C1c2ccccc2C(=O)c2c1cc(S(=O)(=O)Cc1ccccc1)c1nsnc21`, the half-maximal inhibitory concentration (IC50) in assay [1] was 68 µM; in assay [2], greater than 100 µM; in assay [3] it was greater than 100 µM.

Turning to `O=C1c2ccccc2C(=O)c2c1cc(NCc1ccc(C(F)(F)F)cc1)c1nsnc21`, the IC50 was 72 µM in assay [1], greater than 100 µM in assay [2] and 98 µM in assay [3].

As for `O=C1c2ccccc2C(=O)c2c1cc(S(=O)(=O)c1ccc(Cl)cc1)c1nsnc21`, the half-inhibitory concentration (IC50) was 15 µM in assay [1], greater than 100 µM in assay [2] and greater than 100 µM in assay [3].

As to `CC(C)(C)c1ccc(Sc2cc3c(c4nsnc24)C(=O)c2ccccc2C3=O)cc1`, the IC50 in assay [1], in assay [2] and in assay [3] was greater than 100 µM each time.

Regarding `O=C1c2ccccc2C(=O)c2c1cc(Sc1cccc(F)c1)c1nsnc21`, the IC50 in assay [1], in assay [2] and in assay [3] was greater than 50 µM each time.

Regarding `CCC(C)Nc1cc2c(c3nsnc13)C(=O)c1ccccc1C2=O` (centres undefined), the IC50 is 58 µM in assay [1], greater than 100 µM in assay [2] and greater than 100 µM in assay [3].

In the case of `Cc1ccc(Sc2cc3c(c4nsnc24)C(=O)c2ccccc2C3=O)cc1`, the IC50 was 26 µM in assay [1], greater than 100 µM in assay [2] and 22 µM in assay [3].

Take `CCCNc1cc2c(c3nsnc13)C(=O)c1ccccc1C2=O`: the IC50 in assay [1], in assay [2] and in assay [3] was greater than 100 µM each time.

As for `Cc1cccc(Sc2cc3c(c4nsnc24)C(=O)c2ccccc2C3=O)c1`, the half-inhibitory concentration (IC50) in assay [1] is 21 µM; in assay [2], greater than 100 µM; in assay [3] it was 49 µM.

For the compound `CC(C)c1ccc(Sc2cc3c(c4nsnc24)C(=O)c2ccccc2C3=O)cc1`, the half-inhibitory concentration (IC50) in assay [1], in assay [2] and in assay [3] was greater than 100 µM throughout.

On to `CCc1c2c(nc3ccc(OC(=O)N4CCC(N5CCCCC5)CC4)cc13)-c1cc3c(c(=O)n1C2)COC(=O)[C@]3(O)CC` [IRINOTECAN], for which the IC50 worked out at 6.3 µM in assay [1] and 18 µM in assay [3].

Regarding `O=C1c2ccccc2C(=O)c2c1cc(N1CCN(c3ccccn3)CC1)c1nsnc21`, the concentration for half-maximal inhibition (IC50) in assay [1], in assay [2] and in assay [3] was greater than 100 µM throughout.

Take `CC(C)(C)OC(=O)N1CCN(c2cc3c(c4nsnc24)C(=O)c2ccccc2C3=O)CC1`: the concentration for half-maximal inhibition (IC50) in assay [1], in assay [2] and in assay [3] was greater than 100 µM throughout.

As to `O=C1c2ccccc2C(=O)c2c1cc(NCc1cccnc1)c1nsnc21`, the 50% inhibitory concentration (IC50) is 87 µM in assay [1], greater than 100 µM in assay [2] and 12 µM in assay [3].

Regarding `CCCCCCNc1cc2c(c3nsnc13)C(=O)c1ccccc1C2=O`, the IC50 in assay [1] is 50 µM; in assay [2], greater than 100 µM; in assay [3], 47 µM.

`O=C1c2ccccc2C(=O)c2c1cc(Sc1ccc(Cl)cc1)c1nsnc21`: the IC50 in assay [1], in assay [2] and in assay [3] was greater than 100 µM in each case.

As to `O=C1c2ccccc2C(=O)c2c1cc(Sc1nc3ccccc3s1)c1nsnc21`, the concentration for half-maximal inhibition (IC50) in assay [1], in assay [2] and in assay [3] was greater than 100 µM in each case.

`O=C1c2ccccc2C(=O)c2c1cc(SCc1ccccc1)c1nsnc21`: the IC50 in assay [1], in assay [2] and in assay [3] was greater than 100 µM in each case.

Regarding `COc1ccc(Sc2cc3c(c4nsnc24)C(=O)c2ccccc2C3=O)cc1`, the IC50 in assay [1], in assay [2] and in assay [3] was greater than 100 µM each time.

For `O=C1c2ccccc2C(=O)c2c1cc(S(=O)(=O)c1cccc(Cl)c1)c1nsnc21`, the IC50 in assay [1], in assay [2] and in assay [3] was greater than 100 µM each time.

For the compound `CCCCCCCCNc1cc2c(c3nsnc13)C(=O)c1ccccc1C2=O`, the figures for the half-maximal inhibitory concentration (IC50) in assay [1], in assay [2] and in assay [3] were 54 µM, 31 µM and 22 µM, respectively.

On to `CC[C@@]1(O)C(=O)OCc2c1cc1n(c2=O)Cc2cc3ccccc3nc2-1` [CAMPTOTHECIN], for which the IC50 came to 0.12 µM in assay [1] and 0.24 µM in assay [3].
